In patent publication US6642227B2, “Inhibitors of c-Jun N-terminal kinases (JNK) and other protein kinases” (Vertex Pharmaceuticals Incorporated, priority 2001, dated 2003):

Each compound was assayed against T1, human Src kinase (Homo sapiens, UniProt P12931) (assay: Src inhibition assay (A: radioactivity-based or B: spectrophotometric coupled-enzyme assay)). Conditions: assay A or B not specified; inhibitor concentration not given.
T1 construct: full length recombinant human Src kinase; purchased Upstate Biotechnology 14-117; host or cells: baculovirus-infected cells
T1 sequence (P12931 whole entry): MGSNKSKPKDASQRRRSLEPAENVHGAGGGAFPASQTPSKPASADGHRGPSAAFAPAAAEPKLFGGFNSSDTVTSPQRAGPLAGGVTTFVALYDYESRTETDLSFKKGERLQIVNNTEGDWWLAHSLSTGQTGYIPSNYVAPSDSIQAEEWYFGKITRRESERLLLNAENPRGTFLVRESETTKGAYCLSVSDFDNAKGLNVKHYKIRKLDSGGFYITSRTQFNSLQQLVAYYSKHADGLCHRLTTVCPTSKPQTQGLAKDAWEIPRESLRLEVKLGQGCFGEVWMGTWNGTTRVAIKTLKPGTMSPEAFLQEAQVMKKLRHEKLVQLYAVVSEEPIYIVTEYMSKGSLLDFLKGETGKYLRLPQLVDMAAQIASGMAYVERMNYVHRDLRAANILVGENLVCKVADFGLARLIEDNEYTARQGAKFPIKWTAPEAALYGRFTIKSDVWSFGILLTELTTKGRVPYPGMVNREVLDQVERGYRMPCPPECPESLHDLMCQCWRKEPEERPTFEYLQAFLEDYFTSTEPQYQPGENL
Type: biochemical
Protocol: The compounds were evaluated as inhibitors of human Src kinase using either a radioactivity-based assay or spectrophotometric assay.
The compounds were assayed as inhibitors of full length recombinant human Src kinase (from Upstate Biotechnology, cat. no. 14-117) expressed and purified from baculo viral cells. Src kinase activity was monitored by following the incorporation of ^33p from ATP into the tyrosine of a random poly Glu-Tyr polymer substrate of composition, Glu:Tyr=4:1 (Sigma, cat. no. P-0275). The following were the final concentrations of the assay components: 0.05 M HEPES, pH 7.6, 10 mM MgCl2, 2 mM DTT, 0.25 mg/ml BSA, 10 μM ATP (1-2 uCi ^33P-ATP per reaction), 5 mg/ml poly Glu-Tyr, and 1-2 units of recombinant human Src kinase. In a typical assay, all the reaction components with the exception of ATP were pre-mixed and aliquoted into assay plate wells.
Inhibitors dissolved in DMSO were added to the wells to give a final DMSO concentration of 2.5%. The assay plate was incubated at 30° C. for 10 min before initiating the reaction with ^33P-ATP. After 20 min of reaction, the reactions were quenched with 150 μl of 10% trichloroacetic acid (TCA) containing 20 mM Na3PO4. The quenched samples were then transferred to a 96-well filter plate (Whatman, UNI-Filter GF/F Glass Fiber Filter, cat no. 7700-3310) installed on a filter plate vacuum manifold. Filter plates were washed four times with 10% TCA containing 20 mM Na3PO4 and then 4 times with methanol. 200 μl of scintillation fluid was then added to each well. The plates were sealed and the amount of radioactivity associated with the filters was quantified on a TopCount scintillation counter. The radioactivity incorporated was plotted as a function of the inhibitor concentration. The data was fitted to a competitive inhibition kinetics model to get the Ki for the compound.
The ADP produced from ATP by the human recombinant Src kinase-catalyzed phosphorylation of poly Glu-Tyr substrate was quanitified using a coupled enzyme assay (Fox et al (1998) Protein Sci 7, 2249). In this assay one molecule of NADH is oxidised to NAD for every molecule of ADP produced in the kinase reaction. The disappearance of NADH can be conveniently followed at 340 nm.
The following were the final concentrations of the assay components: 0.025 M HEPES, pH 7.6, 10 mM MgCl2, 2 mM DTT, 0.25 mg/ml poly Glu-Tyr, and 25 nM of recombinant human Src kinase. Final concentrations of the components of the coupled enzyme system were 2.5 mM phosphoenolpyruvate, 200 μM NADH, 30 μg/ml pyruvate kinase and 10 μg/ml lactate dehydrogenase.
In a typical assay, all the reaction components with the exception of ATP were pre-mixed and aliquoted into assay plate wells. Inhibitors dissolved in DMSO were added to the wells to give a final DMSO concentration of 2.5%. The assay plate was incubated at 30 C. for 10 min before initiating the reaction with 100 μM ATP. The absorbance change at 340 nm with time, the rate of the reaction, was monitored on a molecular devices plate reader. The data of rate as a function of the inhibitor concentration was fitted to compettive inhibition kinetics model to get the Ki for the compound.

Row | Structure (SMILES) | Src Activity (percent inhibition class D-F)
1 | CSc1sc(-c2ccnc(Nc3ccccc3)n2)c(-c2ccc(C)cc2)c1C#N [IIa-14, 2-Methylsulfanyl-5-(2-phenylamino-pyrimidin-4-yl)-4-p-tolyl-thiophene-3-carbonitrile] | F (compounds having an activity designated as “F” provided a provided a percent inhibition of between 67% and 100%)
2 | CCOc1sc(-c2ccnc(Nc3ccccc3)n2)c(-c2ccc(Cl)cc2)c1C#N [IIa-11, 2-Ethoxy-5-(2-phenylamino-pyrimidin-4-yl)-4-(4-chloro-phenyl)-thiophene-3-carbonitrile] | F (compounds having an activity designated as “F” provided a provided a percent inhibition of between 67% and 100%)
3 | CSc1sc(-c2ccnc(Nc3ccccc3)n2)c(-c2ccc(Cl)cc2)c1C#N [IIa-10, 2-Methylsulfanyl-5-(2-phenylamino-pyrimidin-4-yl)-4-(4-chloro-phenyl)-thiophene-3-carbonitrile] | F (compounds having an activity designated as “F” provided a provided a percent inhibition of between 67% and 100%)
4 | CCOc1sc(-c2ccnc(Nc3ccccc3)n2)c(-c2ccc(C)cc2)c1C#N [IIa-15, 2-Ethoxy-5-(2-phenylamino-pyrimidin-4-yl)-4-p-tolyl-thiophene-3-carbonitrile] | F (compounds having an activity designated as “F” provided a provided a percent inhibition of between 67% and 100%)
